# Reference: patent publication US20100173923A1, “4 (PYRROLOPYRIDINYL)PYRIMIDINYL-2-AMINE DERIVATIVES” (priority 2006, published 2010)
# System: tumour cells (for example commercially available colon carcinoma cell lines)
# Assay: Inhibition of the proliferation/vitality of tumour cells in vitro (Crystal Violet staining)
# Format: cell-based
# Settings: 48 hours incubation with test substance, serum-containing medium, Crystal Violet absorbance, value given as range
# Protocol: In the present experiment description, the inhibition of tumour cell proliferation/tumour cell vitality by active ingredients is described.
# The cells are sown in a suitable cell density in microtitre plates (96-well format). On the next day, the test substances are added in the form of a concentration series. After two further days of cultivation in serum-containing medium, the cell density is determined photometrically by staining the cells with Crystal Violet.
# For example commercially available colon carcinoma cell lines.
# The cells are cultivated in medium. At intervals of 3-4 days, the cells are detached from the culture dishes with the aid of trypsin solution and sown in suitable dilution in fresh medium. The cells are cultivated at 37° Celsius and 10% CO2.
# • A cell culture bottle is washed with 1×PBS • Addition of 3 ml of 1× trypsin solution. Incubation at 37° C. for 5 min in an incubator. • Termination by addition of 7 ml of medium • Centrifugation of the cells (for example for 5 minutes at 150×g (1200 rpm)) • Remove medium by tilting and resuspend cells in fresh medium • Cell counting, for example using Trypan Blue solution (1:2 dilution) in counting chamber • Dilute cell suspension to 25,000 cells/ml and plate out 100 μl/well (2500 cells/well) • Incubation of the microtitre plate at 37° C. in 10% CO2 overnight
# • The test substances are dissolved, for example, in DMSO and subsequently employed in corresponding concentration (if desired in a dilution series) in the cell culture medium. The dilution steps can be adapted depending on the efficiency of the active ingredients and the desired spread of the concentrations. Cell culture medium is added to the test substances in corresponding concentrations. Within the dilution series, the final concentration of DMSO in the cell culture medium can be constant (for example at 0.5%). The addition of the test substances to the cells can take place one day after sowing of the cells. To this end, the medium is removed from the cells, and the test substance dilutions are added to the cells (in the desired concentrations in the cell culture medium). […]
# • The medium is removed from the cells, and the cells are washed with PBS. […] An absorption measurement is carried out at corresponding wavelength, for example 550 nm, in a microtitre plate reader (for example TECAN Genios No F129004). […]
# The absorbance value of the medium control (no cells and test substances used) is subtracted from all other absorbance values. The controls (cells without test substance) with the solvent DMSO are set equal to 100 percent, and all other absorbance values are set in relation thereto (for example in % of control):
# IC50 values (50% inhibition) are determined with the aid of statistics programs, such as, for example, RS1.
row,IC50,SMILES
1,0.5 to 5 µM,CNc1nccc(-c2c[nH]c3ncccc23)n1 [Compound A3]
2,5 to 50 µM,CNc1nccc(-c2cn(CCOC)c3ncccc23)n1 [Compound A4]
3,5 to 50 µM,"COCCn1cc(-c2ccnc(Nc3ccccc3)n2)c2cccnc21 [Compound A2, 1-(2-methoxyethyl)-3-(2-phenylaminopyrimidin-4-yl)-1H-pyrrolo[2,3-b]pyridine]"
4,0.05 to 0.5 µM,"c1ccc(Nc2nccc(-c3c[nH]c4ncccc34)n2)cc1 [Compound A1, 3-(2-phenylaminopyrimidin-4-yl)-1H-pyrrolo[2,3-b]pyridine]"
